Results taken from US20150141439A1, “PHARMACEUTICAL COMPOSITION FOR THE PREVENTION OR TREATMENT OF BRAIN TUMOR OR TEMODAL RESISTANT GLIOBLASTOMA MULTIFORM COMPRISING AZATHIOPRINE AS AN ACTIVE INGREDIENT” (KOREA RESEARCH INSTITUTE OF CHEMICAL TECHNOLOGY, priority 2012, published 2015).
pIC50: −log10 of the molar value.

Legend:
[1] = tested on: GBM #7 glioblastoma multiform patient originated cells; experiment: Neurosphere formation inhibition, GBM #7; type: cell-based, human; set-up: key: S: strong effect; I: intermediate effect; R: rare effect; conditions: GBM #7, type B (classical), Azathioprine 1 μM, duration 23 day
Description: (§1) Particularly, to investigate neurosphere formation, glioblastoma multiform cells were cultured for a certain time and the cells were distributed again in culture vessels, followed by additional culture. Then, the number of newly generated neurospheres was measured. First, the glioblastoma multiform patient originated cells were sub-cultured, which were distributed in a 96-well plate (20, 50, and 200 cells in 50 μl of culture medium/well). 2, 6, and 20 μM of the compound of formula 1 (azathioprine) and the compound of Comparative Example 1 (Temodal) were treated thereto by 50 μl per well to make the final concentrations of 1, 3, and 10 μM. Then, the compound of formula 1 (azathioprine) and the compound of Comparative Example 1 (Temodal) were added to 50 μl of cell culture medium with the same concentrations as the above once a week, which were then cultured for 7˜23 days. When neurosphere was formed at least 50 μm in the control group not treated with the compound, the number of neurospheres in each well was counted to compare the neurosphere formation before and after the treatment of the compound of formula 1 (azathioprine) and the compound of Comparative Example 1 (Temodal).
(§2) The glioblastoma multiform cells used in this experiment were classified into 4 types, which are type A, type B, type C, and type D, according to the gene expression pattern. […]

[2] = tested on: normal human astrocytes (NHA); experiment: WST-1 cell proliferation assay, NHA; type: cell-based
Description: (§3) Particularly, the cell growth inhibition effect was measured by WST-1 cell proliferation assay [http://www.roche-applied-science.com/PROD_INF/MANUALS/CELL_MAN/apoptosis—087—088.pdf]. The compound of formula 1 was loaded in a 384-well cell culture plate. Three types of glioblastoma multiform cell lines [proneural subtype (559T), mesenchymal subtype (592T), and classical subtype (626T)], normal human astrocytes (NHA), a lung cancer cell line (A549), and a glioblastoma multiform cell line (U87MG) were distributed in the plate at the density of 4.5×10^3 cells/well, and the medium was filled up to make 50 μl per well. At this time, the concentration of the solvent DMSO for the compound of formula 1 was no more than 0.2%. After culturing the cells for 72 hours, 5 mg/ml of WST-1 reagent was added by 5 μl per well, followed by reaction for 3˜4 hours. Then OD450 was measured to investigate the effect of the compound of formula 1 on cell proliferation.

[3] = tested on: CCD986SK Human fibroblast; experiment: Secondary cytotoxicity test, CCD986SK; type: cell-based; conditions: CCD-986Sk
Description: as §3
To investigate the cell growth inhibition effect of the compound of formula 1 of the present invention (azathioprine) in many different cell lines, secondary cytotoxicity test was performed with the cell lines listed in Table 5 by the same manner as described in Example 1.

[4] = tested on: GBM #3 glioblastoma multiform patient originated cells; experiment: Neurosphere formation inhibition, GBM #3; type: cell-based, human; set-up: key: S: strong effect; I: intermediate effect; R: rare effect; conditions: GBM #3, type A (proneural), Azathioprine 1 μM, duration 21 day
Description: as §1, with “2, 6, and 20 μM of the compound of formula 1 (azathioprine) and the compound of Comparative Example 1 (Temodal) were treated thereto by 50 μl per well to make the final concentrations of 1, 3, and 10 μM.” left out
The glioblastoma multiform cells used in this experiment were classified into 4 types, which are type A, type B, type C, and type D, according to the gene expression pattern. Methylation of MGMT (O6-me-G methyltransferase), the DNA repair protein, was confirmed in each cell line. […]

[5] = tested on: proneural subtype (559T) glioblastoma multiform cells; conditions: concentrations starting from 100 μM, culture for 7 days
Description: (§4) Thymidine incorporation assay was performed to investigate the cell growth inhibition effect of the compound of the present invention. Three subtypes of glioblastoma multiform cells [proneural subtype (559T), mesenchymal subtype (592T), classical subtype (626T)] and normal human astrocytes (NHA) were N cultured in a 96-well plate at the density of 1×10^4 cells/well, to which 2 μCi/well of 3H-thymidine was added. Azathioprine was added thereto at different concentrations starting from 100 μM, followed by culture for 7 days. 200 μl/well of scintillation fluid (biofluor) was added thereto and count per minute (cpm) was calculated.

[6] = tested on: classical subtype (626T) glioblastoma multiform cells; conditions: concentrations starting from 100 μM, culture for 7 days
Description: as §4

[7] = tested on: mesenchymal subtype (592T) glioblastoma multiform cells; conditions: concentrations starting from 100 μM, culture for 7 days
Description: as §4

[8] = tested on: GBM #6 glioblastoma multiform patient originated cells; experiment: Neurosphere formation inhibition, GBM #6; type: cell-based, human; set-up: key: S: strong effect; I: intermediate effect; R: rare effect; conditions: GBM #6, type B (classical), Azathioprine 1 μM, duration 23 day
Description: as §1, §2

Question: How did the “inhibition of neurosphere formation” value [1] turn out when `Cn1cnc([N+](=O)[O-])c1Sc1ncnc2nc[nH]c12` [Azathioprine, 6-(1-methyl-4-nitro-1H-imidazol-5-ylthio)-7H-purine] was run?
Answer: S

Question: What about the inhibition at 0.032 µM ([2]; Homo sapiens, Astrocyte, 0.032 μM, 72 hours, read-out: Cell Growth Inhibition (% Inhibition)) of the same molecule?
Answer: 1.9%

Question: What about the inhibition at 0.1 µM ([2]; Homo sapiens, Astrocyte, 0.1 μM, 72 hours, read-out: Cell Growth Inhibition (% Inhibition)) of the same molecule?
Answer: 5.9%

Question: What about the inhibition at 0.32 µM ([2]; Homo sapiens, Astrocyte, 0.32 μM, 72 hours, read-out: Cell Growth Inhibition (% Inhibition)) of the same molecule?
Answer: 11%

Question: What about the inhibition at 1 µM ([2]; Homo sapiens, Astrocyte, 1.0 μM, 72 hours, read-out: Cell Growth Inhibition (% Inhibition)) of the same molecule?
Answer: 8.3%

Question: And the inhibition at 3.2 µM ([2]; Homo sapiens, Astrocyte, 3.2 μM, 72 hours, read-out: Cell Growth Inhibition (% Inhibition))?
Answer: 10.5%

Question: And the inhibition at 10 µM ([2]; Homo sapiens, Astrocyte, 10 μM, 72 hours, read-out: Cell Growth Inhibition (% Inhibition))?
Answer: -2.4%

Question: And the GI50 ([2]; Homo sapiens, Astrocyte, 72 hours)?
Answer: > 10 µM

Question: And the “toxicity in normal astrocytes” value ([2]; WST-1, up to 10 μM)?
Answer: did not cause toxicity

Question: What about the pIC50 [3] of the same molecule?
Answer: < 5.00

Question: And the “inhibition of neurosphere formation” value [4]?
Answer: S

Question: What about the “cell growth inhibition effect (3H-thymidine incorporation)” value (from here on “cell growth inhibition effect”) [5] of the same molecule?
Answer: significant cell growth inhibition effect

Question: What about the “cell growth inhibition effect” value [6] of the same molecule?
Answer: significant cell growth inhibition effect

Question: What about the “cell growth inhibition effect” value [7] of the same molecule?
Answer: significant cell growth inhibition effect

Question: And the “inhibition of neurosphere formation” value [8]?
Answer: S
